Source: article PMC11643554, “Synthesis, Cytotoxicity and Antiproliferative Effect of New Pyrrole Hydrazones” (Molecules, 2024)
Values joined by “and” are separate entries in the source; they are usually repeats but may differ in a detail not shown here. Equal entries are not always repeated. Where two headings read alike, the source gives them in different places.

How the values were obtained:
[1] = system: human melanoma SH-4; test: Antiproliferative activity, MTT dye reduction assay, SH-4; assay type: cell-based; settings: for IC50: melanoma SH-4, MTT, 72 h, n = 6, read-out: Mean IC50 ± SD, SH-4; for SI (Selective index): SI = IC50 (non-tumor cell line HaCaT)/IC50 (tumor cell line SH-4)
Protocol: (§1) The antiproliferative activity of the studied substances was determined by MTT dye reduction assay. The assay is based on the metabolism of MTT by reductases in the mitochondria to formazan, the concentration of which can be determined photometrically. The measured absorbance is an indicator of cell viability and metabolic activity. Cells were seeded in 96-well cell culture plates (1 × 10^3 cells/well). Followed by incubation at 37 °C, 5% CO2 for 24 h. Followed by incubation for 72 h of the cells with the studied substances in twice increasing concentrations. After washing with PBS, 100 µL/well of MTT solution (0.5 mg/mL) was added. After 3 h of incubation, the 96-well plates were washed with PBS, and 100 µL/well of lysing solution (DMSO/Ethanol = 1/1) was added. Optical density was measured at a wavelength of 540 nm. The antiproliferative activity expressed in % of the negative control was calculated according to the following formula:Antiproliferative activity (%) = (1 − (OD540 (sample)/OD540 (negative control))) × 100
(§2) The IC50 values (a concentration that inhibited 50% cell proliferation) were calculated using non-linear regression analysis (GraphPad Prizm8 Software). The statistical analysis included the application of one-way ANOVA followed by Bonferroni’s post hoc test. p < 0.05 was accepted as the lowest level of statistical significance. All results are presented as mean ± SD.

[2] = system: mouse embryonic fibroblasts BALB 3T3 clone A31; test: BALB 3T3 Neutral Red Uptake safety test (cytotoxicity/phototoxicity); assay type: cell-based; settings: PIF = CC50 −Irr/CC50 +Irr; PIF < 2 not phototoxic, 2 < PIF < 5 probable phototoxicity, PIF > 5 phototoxic
Protocol: (§3) The Neutral Red Uptake in vitro assay is a colorimetric method for assessing cell viability. This method is based on the ability of living cells to incorporate Neutral Red dye into lysosomes. Mouse embryonic fibroblasts were seeded at 1 × 10^4 cells/100 μL culture medium/well in 96-well cell culture microplates. The cells were incubated for 24 h to allow cell adhesion. The cells were then treated with a solution of the test substances in double-increasing concentrations (from 15 to 4000 μM). The phototoxicity test was performed in parallel on a second 96-well plate, which was irradiated with a solar simulator (LED lamp—Helios-iO (SERIC Ltd., Tokyo, Japan) for 10 min (irradiation dose 0.86 J). After 24 h of incubation, a culture medium containing Neutral Red was added. After 3 h of incubation, the wells were washed with PBS, and a Desorb solution (50% Ethanol, 1% Acetic acid, 49% dH2O) was added. The optical density (OD) was measured by a microplate reader at λ = 540 nm. The percentage of cytotoxicity was calculated according to the following formula:Cytotoxicity (%) = (1 − (OD540 (sample)/OD540 (negative control))) × 100 Phototoxicity is expressed by Photoirritation factor (PIF), PIF = CC50 − Irr/CC50 +Irr* * Irradiation

[3] = as above; assay type: cell-based, mouse; settings: mouse, BALB 3T3 clone A31 embryonic fibroblasts, BALB 3T3, NRU, 24 h incubation, n = 6
Protocol: as §3

[4] = system: human keratinocytes HaCaT; test: Antiproliferative activity, MTT dye reduction assay, HaCaT; assay type: cell-based; settings: non-tumor keratinocytes HaCaT, 72 h, n = 6, read-out: Mean IC50 ± SD, HaCaT
Protocol: as §1, §2

[5] = system: SH-4 cells; test: Annexin V-FITC/PI flow cytometry assay (apoptosis); assay type: cell-based, human; settings: for Early apoptosis (Annexin V+/PI−, Q3) / Late apoptosis (Annexin V+/PI+, Q2) / Live (viable cells, Annexin V−/PI−, Q4) / Necrosis (Annexin V−/PI+, Q1): 1 6 µM, 1A 260 µM, 1B 260 µM, cisplatin 20 µM; for Early apoptosis (Annexin V+/PI−, Q3) / Late apoptosis (Annexin V+/PI+, Q2) / Live (viable cells, Annexin V−/PI−, Q4) / Necrosis (Annexin V−/PI+, Q1) / population fraction of total apoptotic cells: 1C 40 µM, 1D 8 µM
Protocol: Apoptosis was discriminated with the annexin V-FITC/PI test according to the manufacturer’s protocol (SIGMA-ALDRICH APOAF). […] After completion of each drug incubation, cell media that may contain cells in suspension was centrifuged at 350× g for 5 min. Subsequently, the cell monolayers were washed once with PBS, and cells were detached with trypsin and then collected together with a centrifuged pellet. The cells were washed twice with cold PBS and then resuspended in a Binding Buffer (0.1 M Hepes/NaOH (pH 7.4), 1.4 M NaCl, 25 mM CaCl2) at a concentration of 1 × 10^5 cells/mL. The cells were incubated with 5 µL of FITC Annexin V and 10 µL PI for 20 min at RT (25 °C) in the dark. The analysis was performed with BD FACS DIVA software version 7.0 (BD Biosciences, Franklin Lakes, NJ, USA). Data were analyzed as follows: lower left quadrant, viable cells (Annexin V−/PI−); lower right quadrant, early apoptotic cells (Annexin V+/PI−); upper right quadrant, late apoptotic cells (annexin V+/PI+); upper left quadrant, necrotic cells (annexin V−/PI+). Three independent experiments were performed, with two replicates per experiment.

[6] = system: SH-4 cells; test: Cell cycle analysis, PI stain, flow cytometry; assay type: cell-based, human; settings: SH-4, 48 h; for effect on cell cycle distribution (in words): at IC50 doses; for G2 phase, percentage of cells / S phase, percentage of cells / G0/G1 phase, percentage of cells: 1 6 µM, 1A 260 µM, 1B 260 µM, 1C 40 µM, 1D 8 µM, cisplatin 20 µM; for G2 phase, percentage of cells: control 12.1; for S phase, percentage of cells: control 21.6; for G0/G1 phase, percentage of cells: control 63.6
Protocol: After incubation, cells were washed twice with ice-cold PBS and fixed with ice-cold 70% ethanol at −20 °C overnight. The cells were treated with 20 µg/mL RNase A at 37 °C for 60 min, then washed with PBS and finally stained with 20 µg/mL PI in the dark for 30 min. The cellular DNA content for the cell cycle distribution analysis was performed with the system software (BD FACS DIVA software (BD Biosciences, Franklin Lakes, NJ, USA)), plotting at least 10,000 events per sample. Three independent experiments were performed, with two replicates per experiment.

[7] = irradiated with solar simulator 10 min (0.86 J), read-out: Mean CC50 ± SD, +Irr
[8] = without irradiation, read-out: Mean CC50 ± SD, −Irr

SMILES	IC50 ([1]; Homo sapiens)	SI (Selective index) [1]	PIF (Photo Irritation Factor) [2]	CC50 at 24 h [3, 7]	CC50 at 24 h [3, 8]	IC50 ([4]; Homo sapiens)	Early apoptosis (Annexin V+/PI−, Q3) ([5]; SH-4, 48 h)	Late apoptosis (Annexin V+/PI+, Q2) ([5]; SH-4, 48 h)	Live (viable cells, Annexin V−/PI−, Q4) ([5]; SH-4, 48 h)	Necrosis (Annexin V−/PI+, Q1) ([5]; SH-4, 48 h)	effect on cell cycle distribution (in words) [6]	G2 phase, percentage of cells [6]	S phase, percentage of cells [6]	G0/G1 phase, percentage of cells [6]	melting point	other results
CCOC(=O)c1cc(-c2ccc(Cl)cc2)n(C(Cc2ccccc2)C(=O)N/N=C/c2c(C)[nH]c(C(=O)OCC)c2C)c1C (stereo not drawn) [Compound 1C, Ethyl(E)-4-((2-(2-(5-(4-chlorophenyl)-3-(ethoxycarbonyl)-2-methyl-1H-pyrrol-1-yl)-3-phenylpropanoyl)hydrazineylidene)methyl)-3,5-dimethyl-1H-pyrrole-2-carboxylate]	44.6 ± 3.51 µM	3.83	0.95	1750 ± 31.7 µM	1670 ± 41.5 µM	171 ± 4.09 µM	39%	7.13%	53.4%	0.43%	induction of S-phase arrest	24.5%	38.5% and 38%	35%	> 230 °C	population fraction of total apoptotic cells ([5]; SH-4, 48 h): around 46%
CN(C)CCCN1c2ccccc2Sc2ccc(Cl)cc21 [Chlorpromazine, reference compound]			7.21	9.13 ± 0.72 µM	65.8 ± 2.64 µM											
CCOC(=O)c1cc(-c2ccc(Cl)cc2)n(C(Cc2ccccc2)C(=O)NN)c1C (stereo not drawn) [Compound 1, Ethyl-5-(4-chlorophenyl)-1-(1-hydrazinyl-1-oxo-3-phenylpropan-2-yl)-2-methyl-1H-pyrrole-3-carboxylate]	6.86 ± 0.6 µM	1.41	0.94	55.8 ± 4.49 µM	52.3 ± 2.63 µM	9.64 ± 0.58 µM	42.7%	8.74%		0.19%		13.4%	28.5%	57%	170 to 173 °C	viability at 6 µM ([5]; Homo sapiens, SH-4, 48 h, read-out: Live (viable cells, Annexin V−/PI−, Q4)): 48.3%; increase of total apoptotic cell populations compared to the control group ([5]; SH-4, 48 h incubation, 6 µM): 50%
CCOC(=O)c1cc(-c2ccc(Cl)cc2)n(C(Cc2ccccc2)C(=O)N/N=C/c2[nH]c(C(=O)OCC)c(C)c2C(=O)OCC)c1C (stereo not drawn) [Compound 1A, Diethyl(E)-5-((2-(2-(5-(4-chlorophenyl)-3-(ethoxycarbonyl)-2-methyl-1H-pyrrol-1-yl)-3-phenylpropanoyl)hydrazineylidene)methyl)-3-methyl-1H-pyrrole-2,4-dicarboxylate]	270 ± 13.5 µM	1.87	1.11	2840 ± 124 µM	3140 ± 167 µM	503 ± 31.1 µM	36.5%	4.78%	58.2%	0.50%	no significant changes in the cell cycle distribution	14.8%	24.5%	59.8%	109 to 112 °C	apoptotic activity (in words) ([5]; SH-4, 48 h, 260 µM, versus Cisplatin 20 µM): comparable apoptotic activity with positive control
N.N.[Cl][Pt][Cl] [Cisplatin, reference compound]							36.4%	2.59%		0.34%		17.7%	61.3%	17.8%		IC50 [1]: 22.8 ± 1.47 µM; IC50 [4]: 8.64 ± 0.42 µM
CCOC(=O)c1cc(-c2ccc(Cl)cc2)n(C(Cc2ccccc2)C(=O)N/N=C/c2[nH]c(C)c(C(=O)OCC)c2C)c1C (stereo not drawn) [Compound 1B, Ethyl(E)-5-(4-chlorophenyl)-1-(1-(2-((4-(ethoxycarbonyl)-3,5-dimethyl-1H-pyrrol-2-yl)methylene)hydrazineyl)-1-oxo-3-phenylpropan-2-yl)-2-methyl-1H-pyrrole-3-carboxylate]	258 ± 16.1 µM	2.11	0.96	2270 ± 55.4 µM	2180 ± 154 µM	544 ± 26.8 µM	48.9%	6.1%	44.6%	0.46%	slight increase in the S phase population	13.6%	34%	50.2%	129 to 132 °C	apoptotic potential higher than α-aldehyde derivative 1A ([5]; SH-4, 48 h, 260 µM): 14%
CCOC(=O)c1cc(-c2ccc(Cl)cc2)n(C(Cc2ccccc2)C(=O)N/N=C/c2c(C)[nH]c(C)c2C(=O)OCC)c1C (stereo not drawn) [Compound 1D, Ethyl(E)-5-(4-chlorophenyl)-1-(1-(2-((4-(ethoxycarbonyl)-2,5-dimethyl-1H-pyrrol-3-yl)methylene)hydrazineyl)-1-oxo-3-phenylpropan-2-yl)-2-methyl-1H-pyrrole-3-carboxylate]	8.72 ± 0.6 µM	1.26	1.13	3370 ± 130 µM	3800 ± 185 µM	11 ± 0.42 µM	32.5%	6.51%	60.2%	0.78%	induction of S-phase arrest	23.2%	46.4% and 46%	28.3%	> 230 °C	population fraction of total apoptotic cells ([5]; SH-4, 48 h): 39%
